Laboratory results as given in ChEMBL document CHEMBL4419178, “Yap1 inhibitors that target the interaction of yap1 with oct4” (2018).
Calls of active or inactive are those of the source. The rule behind the calls is not given here.

Tests used:
[1] = target: Transcriptional coactivator YAP1 (Homo sapiens) (UniProt P46937); assay: Inhibition of YAP1 in human NCI-H1650 cells assessed as suppression of vimentin mRNA expression at 5 to 10 uM incubated for 72 hrs by RT-PCR method; type: cell-based
HUVEC = assay: Inhibition of angiogenic tubule formation in HUVEC at 1 to 5 uM incubated for 18 to 24 hrs; type: functional, cell-based; settings: Homo sapiens
[2] = target: Transcriptional coactivator YAP1 (Homo sapiens) (UniProt P46937); assay: Inhibition of YAP1 in human NCI-H1650 cells assessed as suppression of PD-L1 mRNA expression at 5 to 10 uM incubated for 72 hrs by RT-PCR method; type: cell-based
[3] = target: Transcriptional coactivator YAP1 (Homo sapiens) (UniProt P46937); assay: Inhibition of YAP1 in human NCI-H146 cells assessed as suppression of PDK2 mRNA expression at 5 to 10 uM incubated for 72 hrs by RT-PCR method; type: cell-based
NCI-H1650 [4] = assay: Inhibition of self-renewal capacity in cisplatin insensitive stem-like side-population cells of human NCI-H1650 cells assessed as reduction in number of spheres at 2 uM incubated for 5 days after 7 days cisplatin exposure by sphere formation assay; type: functional, cell-based
[5] = target: Transcriptional coactivator YAP1 (Homo sapiens) (UniProt P46937); assay: Inhibition of YAP1 in human NCI-H1703 cells assessed as suppression of HK2 mRNA expression at 5 to 10 uM incubated for 72 hrs by RT-PCR method; type: cell-based
HCC827 = assay: Cytotoxicity in erlotinib-resistant human HCC827 cells assessed as reduction in cell viability at 1 to 20 uM by MTT assay; type: functional, cell-based
NCI-H146 [6] = assay: Effect on expression of Oct4 mRNA expression in human NCI-H146 cells at 5 to 10 uM incubated for 72 hrs by RT-PCR method; type: cell-based; settings: nci-h146, 72 h
SK-MEL-5 = assay: Cytotoxicity in human SK-MEL-5 cells assessed as reduction in cell viability at 0.5 to 20 uM incubated for 72 hrs by MTT assay; type: functional, cell-based
[7] = target: Transcriptional coactivator YAP1 (Homo sapiens) (UniProt P46937); assay: Inhibition of YAP1 in human NCI-H1650 cells assessed as suppression of HK2 mRNA expression at 5 to 10 uM incubated for 72 hrs by RT-PCR method; type: cell-based
NCI-H1703 [8] = assay: Cytotoxicity in human NCI-H1703 cells assessed as reduction in cell viability at 0.5 to 20 uM incubated for 96 hrs by MTT assay; type: functional, cell-based
[9] = target: Transcriptional coactivator YAP1 (Homo sapiens) (UniProt P46937); assay: Inhibition of YAP1 in human NCI-H146 cells assessed as suppression of Sox2 mRNA expression at 5 to 10 uM incubated for 72 hrs by RT-PCR method; type: cell-based
NCI-H1650 [10] = assay: Cytotoxicity in human NCI-H1650 cells assessed as reduction in cell viability at 0.5 to 20 uM incubated for 72 hrs by MTT assay; type: functional, cell-based
[11] = target: Transcriptional coactivator YAP1 (Homo sapiens) (UniProt P46937); assay: Inhibition of YAP1 in human NCI-H1650 cells assessed as suppression of fibronectin mRNA expression at 5 to 10 uM incubated for 72 hrs by RT-PCR method; type: cell-based
[12] = target: Transcriptional coactivator YAP1 (Homo sapiens) (UniProt P46937); assay: Inhibition of YAP1 in human NCI-H1703 cells assessed as suppression of Sox2 mRNA expression at 5 to 10 uM incubated for 72 hrs by RT-PCR method; type: cell-based
NCI-H1975 = assay: Cytotoxicity in gefitinib and erlotinib resistant human NCI-H1975 cells assessed as reduction in cell viability at 1 to 10 uM incubated for 72 hrs by MTT assay; type: functional, cell-based
[13] = target: Transcriptional coactivator YAP1 (Homo sapiens) (UniProt P46937); assay: Inhibition of YAP1 in human NCI-H1703 cells assessed as suppression of fibronectin mRNA expression at 5 to 10 uM incubated for 72 hrs by RT-PCR method; type: cell-based
[14] = target: Transcriptional coactivator YAP1 (Homo sapiens) (UniProt P46937); assay: Inhibition of YAP1 in human NCI-H1650 cells assessed as disruption in YAP1/OCT4 interaction at 5 uM incubated for 72 hrs by immunoprecipitation-Westem blot assay; type: cell-based
[15] = target: Transcriptional coactivator YAP1 (Homo sapiens) (UniProt P46937); assay: Inhibition of YAP1 in human NCI-H1703 cells assessed as suppression of vimentin mRNA expression at 5 to 10 uM incubated for 72 hrs by RT-PCR method; type: cell-based
NCI-H1650 [16] = assay: Effect on expression of Nanog mRNA expression in human NCI-H1650 cells at 5 to 10 uM incubated for 72 hrs by RT-PCR method; type: cell-based; settings: nci-h1650, 72 h
[17] = target: Transcriptional coactivator YAP1 (Homo sapiens) (UniProt P46937); assay: Inhibition of YAP1 in human NCI-H1650 cells assessed as suppression of PDK2 mRNA expression at 5 to 10 uM incubated for 72 hrs by RT-PCR method; type: cell-based
Homo sapiens [18] = species: Homo sapiens; assay: Cytotoxicity in human 92-1 cells assessed as reduction in cell viability at 0.5 to 20 uM incubated for 72 hrs by MTT assay; type: functional, cell-based
[19] = target: Transcriptional coactivator YAP1 (Homo sapiens) (UniProt P46937); assay: Inhibition of YAP1 (unknown origin) assessed as disruption in YAP1/OCT4 interaction at 50 uM by cell based assay
Homo sapiens [20] = species: Homo sapiens; assay: Cytotoxicity in human WM1366 cells assessed as reduction in cell viability at 0.5 to 20 uM incubated for 72 hrs by MTT assay; type: functional, cell-based
NCI-H1650 [21] = assay: Effect on expression of Oct4 mRNA expression in human NCI-H1650 cells at 5 to 10 uM incubated for 72 hrs by RT-PCR method; type: cell-based; settings: nci-h1650, 72 h
NCI-H1650 [22] = assay: Inhibition of YAP1/TEAD2 interaction in human NCI-H1650 cells assessed as suppression of CTGF mRNA expression at 5 to 10 uM incubated for 72 hrs by RT-PCR method; type: cell-based
[23] = target: Transcriptional coactivator YAP1 (Homo sapiens) (UniProt P46937); assay: Inhibition of YAP1 (unknown origin) assessed as disruption in YAP1/OCT4 interaction at 5 uM by ELISA relative to control
PC-9 = assay: Cytotoxicity in gefitinib resistant human PC9 cells assessed as reduction in cell viability at 1 to 20 uM by MTT assay; type: functional, cell-based
[24] = target: Transcriptional coactivator YAP1 (Homo sapiens) (UniProt P46937); assay: Inhibition of YAP1 in human NCI-H146 cells assessed as suppression of HK2 mRNA expression at 5 to 10 uM incubated for 72 hrs by RT-PCR method; type: cell-based
[25] = target: Transcriptional coactivator YAP1 (Homo sapiens) (UniProt P46937); assay: Inhibition of YAP1 in human NCI-H1650 cells assessed as reduction in Sox2 protein expression at 50 uM by luciferase reporter gene assay; type: cell-based
[26] = target: Transcriptional coactivator YAP1 (Homo sapiens) (UniProt P46937); assay: Inhibition of YAP1 in human NCI-H1650 cells assessed as suppression of Sox2 mRNA expression at 5 to 10 uM incubated for 72 hrs by RT-PCR method; type: cell-based
NCI-H146 [27] = assay: Effect on expression of Nanog mRNA expression in human NCI-H146 cells at 5 to 10 uM incubated for 72 hrs by RT-PCR method; type: cell-based; settings: nci-h146, 72 h
[28] = target: Transcriptional coactivator YAP1 (Homo sapiens) (UniProt P46937); assay: Inhibition of YAP1 in human NCI-H1703 cells assessed as suppression of PDK2 mRNA expression at 5 to 10 uM incubated for 72 hrs by RT-PCR method; type: cell-based
A549 = assay: Cytotoxicity in human A549 cells assessed as reduction in cell viability at 0.5 to 20 uM incubated for 72 hrs by MTT assay; type: functional, cell-based
NCI-H1703 [29] = assay: Effect on expression of Nanog mRNA expression in human NCI-H1703 cells at 5 to 10 uM incubated for 72 hrs by RT-PCR method; type: cell-based; settings: nci-h1703, 72 h
NCI-H1703 [30] = assay: Inhibition of YAP1/TEAD2 interaction in human NCI-H1703 cells assessed as suppression of CTGF mRNA expression at 5 to 10 uM incubated for 72 hrs by RT-PCR method; type: cell-based
NCI-H226 = assay: Cytotoxicity in human NCI-H226 cells assessed as reduction in cell viability at 0.5 to 20 uM incubated for 96 hrs by MTT assay; type: functional, cell-based
NCI-H146 [31] = assay: Inhibition of self-renewal capacity in methotrexate insensitive stem-like side-population cells of human NCI-H146 cells assessed as reduction in number of spheres at 2 uM incubated for 3 days after 7 days methotrexate exposure by sphere formation assay; type: functional
[32] = target: Transcriptional coactivator YAP1 (Homo sapiens) (UniProt P46937); assay: Inhibition of YAP1 in human A549 cells assessed as disruption in YAP1/OCT4 interaction at 5 uM incubated for 72 hrs by immunoprecipitation-Westem blot assay; type: cell-based
[33] = target: Transcriptional coactivator YAP1 (Homo sapiens) (UniProt P46937); assay: Inhibition of YAP1 in human NCI-H1703 cells assessed as suppression of PD-L1 mRNA expression at 5 to 10 uM incubated for 72 hrs by RT-PCR method; type: cell-based
NCI-H1650 [34] = assay: Inhibition of self-renewal capacity in stem-like side-population cells of human NCI-H1650 cells assessed as reduction in number of spheres at 50 uM incubated for 10 days by sphere formation assay relative to control; type: functional; settings: NCI-H1650, 240 h
NCI-H1703 [35] = assay: Effect on expression of Oct4 mRNA expression in human NCI-H1703 cells at 5 to 10 uM incubated for 72 hrs by RT-PCR method; type: cell-based; settings: nci-h1703, 72 h

Sequence of Transcriptional coactivator YAP1 (Homo sapiens) (P46937 whole entry): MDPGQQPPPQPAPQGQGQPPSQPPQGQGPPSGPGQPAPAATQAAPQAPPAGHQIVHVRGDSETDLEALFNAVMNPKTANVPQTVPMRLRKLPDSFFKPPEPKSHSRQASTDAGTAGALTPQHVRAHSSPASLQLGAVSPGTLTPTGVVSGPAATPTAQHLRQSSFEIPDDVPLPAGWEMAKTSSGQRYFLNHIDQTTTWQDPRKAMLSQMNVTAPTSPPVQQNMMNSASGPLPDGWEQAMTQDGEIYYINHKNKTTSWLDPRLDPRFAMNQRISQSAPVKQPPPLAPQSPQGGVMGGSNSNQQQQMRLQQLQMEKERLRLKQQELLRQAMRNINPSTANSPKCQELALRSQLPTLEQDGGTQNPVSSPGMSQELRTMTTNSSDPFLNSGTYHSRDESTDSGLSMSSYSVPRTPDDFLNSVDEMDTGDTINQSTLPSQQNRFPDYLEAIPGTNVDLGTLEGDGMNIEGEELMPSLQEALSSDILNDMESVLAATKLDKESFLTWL

SMILES: O=C(CC1CCN(C(=O)CCc2ccccc2)CC1)N[C@@H](Cc1ccc(OCc2ccccc2)cc1)C(=O)O
- inhibition [1]: Active
- inhibition (HUVEC): Active
- inhibition [2]: Active
- inhibition [3]: Active
- inhibition (NCI-H1650 [4]): Active
- inhibition [5]: Active
- Activity (HCC827): Active
- Activity (NCI-H146 [6]): Non-Toxic
- Activity (SK-MEL-5): Active
- inhibition [7]: Active
- Activity (NCI-H1703 [8]): Active
- inhibition [9]: Active
- Activity (NCI-H1650 [10]): Active
- inhibition [11]: Active
- inhibition [12]: Active
- Activity (NCI-H1975): Active
- inhibition [13]: Active
- inhibition [14]: Active
- inhibition [15]: Active
- Activity (NCI-H1650 [16]): Non-Toxic
- inhibition [17]: Active
- Activity (Homo sapiens [18]): Active
- inhibition [19]: > 85%
- Activity (Homo sapiens [20]): Active
- Activity (NCI-H1650 [21]): Non-Toxic
- inhibition (NCI-H1650 [22]): inactive
- inhibition [23]: 95%
- Activity (PC-9): Active
- inhibition [24]: Active
- inhibition [25]: 85.3%
- inhibition [26]: Active
- Activity (NCI-H146 [27]): Non-Toxic
- inhibition [28]: Active
- Activity (A549): Active
- Activity (NCI-H1703 [29]): Non-Toxic
- inhibition (NCI-H1703 [30]): inactive
- Activity (NCI-H226): Active
- inhibition (NCI-H146 [31]): Active
- inhibition [32]: Active
- inhibition [33]: Active
- inhibition at 50 µM (NCI-H1650 [34]): 72.6%
- Activity (NCI-H1703 [35]): Non-Toxic
